Source: US11752140B2, “Compositions comprising substituted benzofuroquinolizine and psychoactive drug” (VETCARE OY, priority 2016, dated 2023)

Legend:
dogs [1] = details: medetomidine 20 μg/kg IM or 10 μg/kg IV alone (Rolfe 2012); cited from earlier work
dogs [2] = details: MK-467 250, 500, 750 μg/kg with dexmedetomidine 10 μg/kg IV (Restitutti 2011); cited from earlier work
[3] = Plasma concentrations of butorphanol and midazolam in dogs after IM administration of composition with or without MK-467; details: for Peak plasma concentration / Time at which peak plasma concentration was reached from the IM administration: IM
Description: Plasma Concentrations of Butorphanol and Midazolam in Dogs after IM Administration of a Composition Comprising MK-467, Butorphanol, Midazolam and Medetomidine, Compared with Composition without MK-467
A liquid aqueous composition comprising MK-467, butorphanol tartrate, midazolam and medetomidine was administered to a dog intramuscularly (IM) to provide a dosage of MK-467 500 μg/kg, butorphanol 100 μg/kg, midazolam 200 μg/kg and medetomidine 20 μg/kg.
Five purpose-bred, adult beagles were used for this study.
Study design: A prospective, randomized, experimental cross-over study.
Each dog was treated for two times with a 14-day wash-out period:
Treatment 1. medetomidine (20 μg/kg)+butorphanol (100 μg/kg)+midazolam (0.2 mg/kg)
Treatment 2. medetomidine (20 μg/kg)+MK-467 (MK) (500 μg/kg)+butorphanol (100 μg/kg)+midazolam (0.2 mg/kg).
For treatment 1. 1 mL of medetomidine (Dorbene 1 mg/mL) was diluted with 1 mL of saline. For treatment 2. 25 mg of MK-467 was mixed with 1 mL of medetomidine, and 1 mL of saline was added. The mixture, butorphanol (Torpudor 10 mg/mL) and midazolam (Midazolam Hameln 5 mg/mL) were aspirated into a single syringe. The end volume of the injectable in both treatments was 0.09 mL/kg.
Dog was positioned laterally and the drugs were injected IM into the epaxial muscle. Central venous blood was sampled into EDTA-tubes at 0, 3, 6, 10, 15, 20, 25, 30, 40, 50, 60 and 90 minutes after drug administration. The plasma concentrations were analyzed with LC/MS/MS for plasma concentrations of dexmedetomidine, midazolam and butorphanol.

[4] = in the presence of MK-467 500 μg/kg, with medetomidine 20 μg/kg, butorphanol 100 μg/kg, midazolam 200 μg/kg in the same syringe
[5] = without MK-467, medetomidine, butorphanol, midazolam in the same syringe
[6] = parenteral extravascular administration, composition with MK-467

SMILES	Heart rate, Pvo(2) and cardiac index compared with baseline (dogs [1])	MAP, SVR and oxygen extraction ratio compared with baseline (dogs [1])	Effect on bispectral index (BIS) values (dogs [2])	Peak plasma concentration [3, 4] [ng/mL]	Time at which peak plasma concentration was reached from the IM administration ([3]; with MK-467) [min]	Time at which peak plasma concentration was reached from the IM administration ([3]; without MK-467) [min]	Peak plasma concentration [3, 5] [ng/mL]	Time at which maximum plasma concentration was reached [3, 6] [min]	Time at which maximum plasma concentration was reached ([3]; without MK-467) [min]
Cc1cccc(C(C)c2cnc[nH]2)c1C (racemic) [medetomidine, (RS)-4-[1-(2,3-dimethylphenyl)ethyl]-3H-imidazole]	significantly lower	significantly higher							
Cc1cccc([C@H](C)c2cnc[nH]2)c1C [Dexmedetomidine, (S)-4-[1-(2,3-Dimethylphenyl)ethyl]-3H-imidazole]			decreased BIS-values						
Oc1ccc2c(c1)[C@@]13CCCC[C@@]1(O)[C@@H](C2)N(CC1CCC1)CC3 [butorphanol]				17	≤ 10	≤ 30	11	10	30
Cc1ncc2n1-c1ccc(Cl)cc1C(c1ccccc1F)=NC2 [midazolam]				133	≤ 5	≤ 30	71	5	20
